# Tests used:
# Type in all cases: cell-based
# [1] = system: ypt1^ts cells; test: Rescue of growth of ypt1^ts mutant yeast (OD600); settings: Saccharomyces cerevisiae, read-out: Ypt1-ts MRC (Minimum Rescue Concentration), ypt1^ts cells, 35° C. and 37° C., OD600; multiple results separated by a comma
# Excerpt: The activity of the compounds as modulators of protein trafficking may be measured in the assays described herein that evaluate the ability of a compound to rescue an impairment in protein trafficking. For example, the yeast mutant cell line ypt1^ts can be used to identify compounds that rescue cells from the lethal phenotype of a mutant YPT1 allele (see, e.g., Examples and Schmitt et al. (1988) Cell 53:635-47). The activity may be measured, for example, in a whole yeast cell assay using 384-well screening protocol and an optical density measurement.
# The yeast mutant cell line ypt1^ts suppresses, in a temperature dependent fashion, the dominant-lethal phenotype of a mutant YPT1 allele (Schmitt et al. (1988) Cell 53:635-47). The yeast mutant cell line ypt1^ts contains an allele of YPT1 that has two point mutations: one that changes an asparagine at position 121 to a isoleucine (N121I) and another that changes an alanine at position 161 to a valine (A161V). The N121I mutation causes dominant lethality by itself, but lethality is suppressed by the second mutation, resulting in a recessive loss of function phenotype at the restrictive temperatures. ypt1^ts cells grow normally at temperatures up to 25° C., but are growth arrested at 37° C. (Id.).
# Compounds were screened to assess their ability to restore growth of ypt1^ts cells. The effect of the compounds was measured on ypt1^ts cells cultured at room temperature (permissive temperature), 37° C. (non-permissive temperature), and 35° C. (semi-permissive temperature).
# To determine if the test compounds could rescue the ypt1^ts mutant phenotype, ypt1^ts cells were grown overnight in synthetic complete (SC) media supplemented with 2% glucose at room temperature. Log phase cells were diluted into SC 2% glucose media to an OD600 of 0.003. 100 μL of this culture was then aliquoted into each well of 96-well flat bottom microtiter plates. 1 μL of the test compounds dissolved in DMSO (at a concentration range from 5 mM-0.005 mM) or of DMSO alone was added to each well (50 μM-0.05 μM final concentration in 1% DMSO). Plates were mixed by vortexing and incubated at 35° C. and 37° C. Compound rescue of the ypt1^ts temperature sensitive defect was assessed by measuring the OD600 (optical density at 600 nm; cell growth) of the cultures. Plates incubated at 35° C. were measured at 24 and 40 hours incubation time while plates grown at 37° C. were measured after 40 hours of incubation.
# Assays monitoring the rescue of ypt1^ts mutants were performed using a vehicle, a positive control (calcium), and the compounds identified in Table II. Results in Table II corresponding to an MRC (Minimum Rescue Concentration) for ypt1^ts of greater than or equal to 50 micromolar are labeled +; of an MRC for ypt1^ts of 10-50 micromolar are labeled ++; and of an MRC for ypt1^ts of less than 10 micromolar are labeled +++. Multiple results for a particular compound are separated by a comma.
# [2] = target: T1, ΔF508 CFTR (Homo sapiens, UniProt P13569, DEL508-508); test: Corrector activity, YFP halide (iodide) quenching assay in FRT cells expressing ΔF508 CFTR; set-up: expressed in transfected cells; host or cells: Fischer rat thyroid (FRT) cells; settings: FRT cells ΔF508 CFTR/YFP, 24 hours with compound at 37° C., forskolin and genistein; read-out: Corrector EC50
# T1 sequence (P13569 with tags, fused parts or gaps DEL508-508): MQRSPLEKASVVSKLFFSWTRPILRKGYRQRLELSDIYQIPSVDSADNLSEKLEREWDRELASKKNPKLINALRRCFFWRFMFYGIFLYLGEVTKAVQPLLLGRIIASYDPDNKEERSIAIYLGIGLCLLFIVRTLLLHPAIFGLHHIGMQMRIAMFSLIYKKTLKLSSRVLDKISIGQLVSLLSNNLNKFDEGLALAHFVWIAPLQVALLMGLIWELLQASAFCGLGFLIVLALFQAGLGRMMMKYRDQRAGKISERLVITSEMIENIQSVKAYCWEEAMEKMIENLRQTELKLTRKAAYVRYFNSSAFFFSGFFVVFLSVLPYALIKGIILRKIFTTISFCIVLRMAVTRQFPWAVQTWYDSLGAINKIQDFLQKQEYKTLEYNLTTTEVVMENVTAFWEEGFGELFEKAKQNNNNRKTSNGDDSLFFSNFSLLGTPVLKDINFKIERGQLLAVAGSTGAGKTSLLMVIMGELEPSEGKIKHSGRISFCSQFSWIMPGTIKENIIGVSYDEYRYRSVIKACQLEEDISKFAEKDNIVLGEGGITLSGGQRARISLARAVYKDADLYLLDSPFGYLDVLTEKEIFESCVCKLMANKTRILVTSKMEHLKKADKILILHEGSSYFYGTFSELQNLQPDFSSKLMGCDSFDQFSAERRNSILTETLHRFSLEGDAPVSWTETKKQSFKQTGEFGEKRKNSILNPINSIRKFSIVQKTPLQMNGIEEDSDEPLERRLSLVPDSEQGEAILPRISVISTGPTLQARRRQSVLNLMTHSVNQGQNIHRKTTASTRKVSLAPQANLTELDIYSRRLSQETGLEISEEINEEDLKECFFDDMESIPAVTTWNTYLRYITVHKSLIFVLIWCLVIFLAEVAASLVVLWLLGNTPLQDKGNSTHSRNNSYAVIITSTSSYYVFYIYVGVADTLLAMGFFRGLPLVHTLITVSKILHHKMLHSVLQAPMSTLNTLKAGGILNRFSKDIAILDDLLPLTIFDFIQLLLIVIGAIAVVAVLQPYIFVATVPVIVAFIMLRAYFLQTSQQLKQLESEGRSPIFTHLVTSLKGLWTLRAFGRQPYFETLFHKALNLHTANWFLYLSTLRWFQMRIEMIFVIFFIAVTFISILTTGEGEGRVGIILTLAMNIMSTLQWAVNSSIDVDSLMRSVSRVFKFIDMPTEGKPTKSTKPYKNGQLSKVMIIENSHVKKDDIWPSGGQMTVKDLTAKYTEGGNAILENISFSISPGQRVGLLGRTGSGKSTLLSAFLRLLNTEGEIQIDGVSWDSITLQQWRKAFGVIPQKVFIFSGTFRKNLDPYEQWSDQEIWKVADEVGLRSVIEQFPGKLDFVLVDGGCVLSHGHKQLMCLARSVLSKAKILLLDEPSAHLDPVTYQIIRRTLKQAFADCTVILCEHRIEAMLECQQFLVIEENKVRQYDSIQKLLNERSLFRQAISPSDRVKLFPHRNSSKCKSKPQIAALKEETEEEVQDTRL
# Procedure, shortened: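 FRT cells co-expressing ΔF508 CFTR and halide-sensitive YFP were incubated 24 h at 37° C with compounds, then stimulated 30 min at 37° C in PBS with forskolin and genistein. Endpoint fluorescence after iodide injection was normalized to initial reading; EC50 from 4-parameter fit with bottom constrained to DMSO control.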
# [3] = target: T1, ΔF508 CFTR; test: Potentiator activity, YFP halide (iodide) quenching assay in FRT cells expressing ΔF508 CFTR, 27° C. pre-incubation; set-up: expressed in transfected cells; host or cells: Fischer rat thyroid (FRT) cells; Potentiator activity compared to the DMSO control (no EC50 obtained): scale not given here; settings: for EC50: FRT cells ΔF508 CFTR/YFP, 24 hours at 27° C., compound with forskolin 30 min
# Procedure, shortened: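 FRT cells stably co-expressing ΔF508 CFTR and halide-sensitive YFP, grown 24 h at 37° C. then 24 h at 27° C. to raise surface CFTR. Compounds in PBS with forskolin, 30 min at 37° C.; iodide injected and YFP quenching (ex 485/em 530 nm) followed. EC50 from normalized endpoint fluorescence.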
Compound,minimal effective concentration [1] [µM],EC50 [2] [µM],EC50 [3] [µM],Potentiator activity compared to the DMSO control (no EC50 obtained) ([3]; at 12 μm)
CC(C)(C)n1nc(-c2ccc(Cl)cc2)c2c(N)nc(C3CC3)nc21 [compound 62],> 50,–,–,–
CCn1nc(-c2ccc(Cl)cc2)c2c(N(C(C)=O)C(C)=O)ncnc21 [compound 54],> 50,–,–,–
CC(C)(C)n1nc(-c2cccs2)c2c(N)ncnc21 [compound 15],> 50,–,–,–
CC(C)(C)n1nc(Cc2ccc3c(c2)OCO3)c2c(N)ncnc21 [compound 23],10 to 50,–,–,–
Nc1ncnc2c1c(-c1ccc(Cl)cc1)nn2C1CNC1 [compound 411],–,> 15,> 15,–
CC(C)(C)n1nc(Oc2cccc3c2CCCC3)c2c(N)ncnc21 [compound 209],–,> 15,> 15,–
Nc1ncnc2c1c(-c1ccc(Cl)cc1)nn2[C@H]1CCOC1 [compound 318],–,> 15,> 15,–
"CC(C)(C)n1cc(-c2ccc(Cl)cc2)c2c(N)ncnc21 [Compound No. 261, 7-tert-Butyl-5-(4-chloro-phenyl)-7H-pyrrolo[2,3-d]pyrimidin-4-ylamine]",–,< 2,< 2,–
CCn1nc(Sc2ccccc2Cl)c2c(N)ncnc21 [compound 227],–,> 15,> 15,–
Cc1cc(C)cc(Oc2nn(C(C)(C)C)c3ncnc(N)c23)c1 [compound 180],–,5 to 10,< 2,–
Nc1ncnc2c1c(-c1ccc(Cl)cc1)cn2CC(F)F [compound 290],–,< 2,2 to 5,–
CCn1cc(-c2ccc(Cl)cc2)c2c(NC(=O)c3ccc(C)cc3)ncnc21 [compound 298],–,< 2,> 15,–
Cc1ccc(Oc2nn(C(C)(C)C)c3ncnc(N)c23)cc1C [compound 177],–,> 15,< 2,–
CCn1nc([S+]([O-])c2cccc3ccccc23)c2c(N)ncnc21 (stereo not shown) [compound 241],–,> 15,> 15,–
CC(C)(C)n1nc(Oc2cccc(OC(F)(F)F)c2)c2c(N)ncnc21 [compound 194],–,> 15,> 15,–
CCn1nc([S+]([O-])c2ccc(C)cc2)c2c(N)ncnc21 (stereo not shown) [compound 291],–,> 15,> 15,–
"Nc1ncnc2[nH]nc(Oc3cccc(Cl)c3)c12 [Compound No. 220, 3-(3-Chloro-phenoxy)-1H-pyrazolo[3,4-d]pyrimidin-4-ylamine]",–,> 15,> 15,–
CC(C)(C)n1nc(-c2ccc(Cl)cc2)c2c(NC(=O)N3CCCCC3)ncnc21 [compound 273],–,> 15,> 15,–
Cc1ccc(-c2nn(C(C)(C)C)c3ncnc(NC(=O)c4ccc(F)cc4)c23)cc1 [compound 94],–,5 to 10,> 15,–
"CC(C)(C)n1nc(Oc2cccc3ccccc23)c2c(N)ncnc21 [compound 198, 1-tert-Butyl-3-(naphthalen-1-yloxy)-1H-pyrazolo[3,4-d]pyrimidin-4-ylamine]",–,> 15,–,# (at 12 μm)
Nc1ncnc2c1c(-c1ccc(Cl)cc1)cn2C1CCC1 [compound 257],–,< 2,< 2,–
"CCOC(=O)N1CC(n2nc(Sc3cccc(Cl)c3)c3c(N)ncnc32)C1 [Compound No. 345, 3-[4-Amino-3-(3-chloro-phenylsulfanyl)-pyrazolo[3,4-d]pyrimidin-1-yl]-azetidine-1-carboxylic acid ethyl ester]",–,> 15,2 to 5,–

# From patent US20100331297A1, “MODULATION OF PROTEIN TRAFFICKING” (FOLDRX PHARMACEUTICALS, INC., priority 2007, published 2010)
